Our source for the MIC values is DBAASP.

Test systems include Aureobasidium pullulans; Escherichia coli K-12; Escherichia coli MG1655.
What all share (test): ≥ marks a high value that may be exact or a test limit, other limits are often not marked, values filed in µg/mL are converted to µM
For assay [1], the system named is Enterococcus faecalis NCTC 12697.
The subject of assay [2] is Escherichia coli NCTC 10418.
Assay [3] relates to Klebsiella pneumoniae ATCC 43816.
Assay [4] has as its system Candida albicans NCYC 1467.
Assay [5] has as its system Staphylococcus aureus NCTC 10788.
The test system of assay [6] is Pseudomonas aeruginosa ATCC 27853.
Assay [7] concerns Staphylococcus aureus NCTC 12493.
The test system of assay [8] is Candida albicans ATCC 10231.
Assay [9] deals with Escherichia coli ATCC 25922.
In assay [10] the test system is Corynebacterium glutamicum ATCC 13032.
The subject of assay [11] is Staphylococcus aureus ATCC 9144.
The test system of assay [12] is Pseudomonas aeruginosa PA214.
For assay [13], the system named is Pseudomonas aeruginosa PA287.
For assay [14], the system named is Pseudomonas aeruginosa PAO1.
In assay [15] the test system is Staphylococcus aureus SH1000.
Assay [16] concerns Klebsiella pneumoniae ATCC 700603.
Assay [17] deals with Staphylococcus aureus ATCC 43300.
Assay [18] has as its system Acinetobacter baumannii ATCC 19606.
The test system of assay [19] is Candida albicans ATCC 90028.
Assay [20] has as its system Cryptococcus neoformans ATCC 208821.
Assay [21] relates to Staphylococcus aureus NCTC 8325.
In assay [22] the test system is Pseudomonas aeruginosa PA7.
Assay [23] deals with Staphylococcus aureus 1399/17.
Assay [24] concerns Staphylococcus aureus ATCC 33591.
The subject of assay [25] is Acinetobacter baumannii 7226/16.
Assay [26] relates to Klebsiella pneumoniae ESBL 344/17.
The subject of assay [27] is Pseudomonas aeruginosa 522/17.
In assay [28] the test system is Staphylococcus aureus SG511.

The structures appear in SMILES notation. In brackets after ≈: the same amount, converted by molar mass. Several values for one entry are separate records, joined by “and”; a condition that tells them apart may be missing. Identical values can stand only once.

Consider `CC[C@H](C)[C@@H]1NC(=O)[C@H](C)NC(=O)[C@@H](NC(=O)[C@H](Cc2ccccc2)NC(=O)[C@@H](NC(=O)[C@H](CCCCN)NC(=O)[C@@H]2CCCN2C(=O)[C@H](CC(C)C)NC(=O)[C@H](Cc2ccccc2)NC(=O)[C@H](CCCCN)NC(=O)[C@H](C)NC(=O)[C@H](C)NC(=O)[C@H](CC(C)C)NC(=O)CNC(=O)[C@H](C)NC(=O)[C@@H](NC(=O)[C@H](CC(C)C)NC(=O)[C@@H]2CCCN2C(=O)[C@H](CC(C)C)NC(=O)[C@@H](N)Cc2ccccc2)[C@@H](C)CC)[C@@H](C)CC)CSSC[C@@H](C(=O)O)NC(=O)[C@H](CCCCN)NC(=O)[C@H](CCCCN)NC(=O)[C@H]([C@@H](C)O)NC1=O` [FLPLIAGLAAKFLPKIFCAITKKC], for which the minimal inhibitory concentration (MIC) in [1] stood at 8 µM (≈ 20.8 µg/mL); in assay [2], 8 µM (≈ 20.8 µg/mL); in assay [3], 16 µM (≈ 41.7 µg/mL); in assay [4], 4 µM (≈ 10.4 µg/mL); in assay [5], 4 µM (≈ 10.4 µg/mL); in assay [6] it was 32 µM (≈ 83.4 µg/mL). This compound also displayed a minimum inhibitory concentration (MIC) in assay [7] of 16 µM (≈ 41.7 µg/mL).
As to `CC(C)C[C@H](NC(=O)[C@H](CCC(N)=O)NC(=O)[C@H](CCC(N)=O)NC(=O)[C@H](C)NC(=O)CNC(=O)[C@H](C)NC(=O)[C@H](CCCCN)NC(=O)CNC(=O)[C@@H](NC(=O)[C@H](CCC(N)=O)NC(=O)[C@H](CCCCN)NC(=O)[C@H](CCCCN)NC(=O)[C@H](CC(C)C)NC(=O)[C@H](Cc1ccc(O)cc1)NC(=O)[C@H](CCCCN)NC(=O)[C@H](C)NC(=O)CNC(=O)[C@H](C)NC(=O)[C@H](CCCCN)NC(=O)[C@H](Cc1ccccc1)NC(=O)[C@H](CC(C)C)NC(=O)[C@H](CO)NC(=O)[C@H](CO)NC(=O)[C@H](Cc1ccccc1)NC(=O)CN)C(C)C)C(N)=O` [GFSSLFKAGAKYLKKQVGKAGAQQL], the MIC in assay [1] was 16 µM (≈ 42 µg/mL); in assay [2] it was 8 µM (≈ 21 µg/mL); in assay [3], not below 128 µM; in [4], not below 64 µM; in [5] it was 16 µM (≈ 42 µg/mL); in [6] it was 16 µM (≈ 42 µg/mL). In assay [7], this compound gave a minimal inhibitory concentration (MIC) not below 64 µM.
Consider `CC(C)[C@H](NC(=O)[C@H](CCCCN)NC(=O)[C@H](C)NC(=O)[C@@H](NC(=O)[C@@H](NC(=O)[C@H](CCCN=C(N)N)NC(=O)[C@H](C)NC(=O)[C@H](Cc1c[nH]c2ccccc12)NC(=O)[C@H](Cc1c[nH]c2ccccc12)NC(=O)CN)[C@@H](C)O)C(C)C)C(=O)N[C@@H](CCCN=C(N)N)C(=O)N[C@@H](CCCCN)C(N)=O` [GWWARTVAKVRK], for which the minimal inhibitory concentration (MIC) against Aureobasidium pullulans is not below 50 µM; in [8] it was 25 µM (≈ 36.4 µg/mL); in assay [9], 6.3 µM (≈ 9.18 µg/mL); in assay [10], 1.6 µM (≈ 2.33 µg/mL); in assay [11] it was not below 50 µM; in assay [6], 12.5 µM (≈ 18.2 µg/mL).
With `C[C@H](NC(=O)[C@H](C)NC(=O)[C@H](Cc1ccccc1)NC(=O)[C@H](C)NC(=O)[C@H](CCCCN)NC(=O)[C@H](C)NC(=O)[C@H](Cc1c[nH]c2ccccc12)NC(=O)[C@H](C)NC(=O)[C@H](CCCCN)NC(=O)[C@H](C)NC(=O)[C@H](Cc1ccccc1)NC(=O)[C@H](C)NC(=O)[C@H](C)NC(=O)[C@H](CCCCN)NC(=O)[C@H](CCCCN)NC(=O)[C@H](CCCCN)NC(=O)[C@@H](N)CCCCN)C(N)=O` [KKKKAAFAKAWAKAFAA], the MIC was not below 50 µM in assay [12], not below 50 µM in [13], 12.5 µM (≈ 22.9 µg/mL) against Escherichia coli K-12 and 50 µM (≈ 91.8 µg/mL) in [14].
Regarding `C[C@H](NC(=O)[C@H](C)NC(=O)[C@H](Cc1ccccc1)NC(=O)[C@H](C)NC(=O)[C@H](C)NC(=O)[C@H](Cc1c[nH]c2ccccc12)NC(=O)[C@H](C)NC(=O)[C@H](CCCCN)NC(=O)[C@H](C)NC(=O)[C@H](Cc1ccccc1)NC(=O)[C@H](C)NC(=O)[C@H](C)NC(=O)[C@H](CCCCN)NC(=O)[C@H](CCCCN)NC(=O)[C@H](CCCCN)NC(=O)[C@H](CCCCN)NC(=O)[C@@H](N)CCCCN)C(N)=O` [KKKKKAAFAKAWAAFAA], the minimal inhibitory concentration (MIC) in assay [12] is 25 µM (≈ 45.9 µg/mL); in assay [13], not below 50 µM; against Escherichia coli K-12, 6.3 µM (≈ 11.6 µg/mL); in [14], 25 µM (≈ 45.9 µg/mL).
For `CC[C@H](C)[C@H](NC(=O)[C@H](CCCCN)NC(=O)[C@H](CC(C)C)NC(=O)[C@H](CC(C)C)NC(=O)[C@@H](N)CCCCN)C(=O)N[C@H](C(=O)N[C@@H](CCCCN)C(=O)N[C@@H](CCCCN)C(=O)N[C@H](C(=O)N[C@H](C(=O)NCC(=O)N[C@@H](C)C(=O)N[C@@H](CC(C)C)C(=O)NCC(N)=O)C(C)C)C(C)C)C(C)C` [KLLKIVKKVVGALG], in assay [15], the MIC was not below 100 µM.
Take `CC(C)C[C@H](NC(=O)[C@H](C)NC(=O)CNC(=O)[C@H](CC(C)C)NC(=O)[C@H](CC(C)C)NC(=O)[C@H](CCCCN)NC(=O)[C@H](CCCCN)NC(=O)[C@H](CC(C)C)NC(=O)[C@H](CC(C)C)NC(=O)[C@H](CCCCN)NC(=O)[C@H](CC(C)C)NC(=O)[C@H](CC(C)C)NC(=O)[C@@H](N)CCCCN)C(=O)NCC(N)=O` [KLLKLLKKLLGALG]: the MIC was found to be 10 µM (≈ 15.1 µg/mL) in [15]; 5 µM (≈ 7.54 µg/mL) in assay [16]; 1 µM (≈ 1.51 µg/mL) in [9]; 3 µM (≈ 4.52 µg/mL) in assay [17]; 1 µM (≈ 1.51 µg/mL) in assay [18]; 21 µM (≈ 31.6 µg/mL) in [6]. Further, the figures for the minimum inhibitory concentration (MIC) in assay [19] and in assay [20] were 11 µM (≈ 16.6 µg/mL) and 3 µM (≈ 4.52 µg/mL), respectively.
Turning to `CC[C@H](C)[C@H](NC(=O)[C@H](CCC(=O)O)NC(=O)[C@H](CCCCN)NC(=O)[C@H](C)NC(=O)[C@@H](NC(=O)[C@H](CCCCN)NC(=O)[C@H](CCCCN)NC(=O)[C@H](CC(C)C)NC(=O)[C@@H](NC(=O)[C@H](CC(=O)O)NC(=O)[C@H](CCCN=C(N)N)NC(=O)[C@@H](NC(=O)[C@H](Cc1ccccc1)NC(=O)CNC(=O)[C@@H]1CCCN1C(=O)[C@@H](NC(=O)[C@H](CCCCN)NC(=O)[C@@H](N)CC(C)C)[C@@H](C)CC)C(C)C)[C@@H](C)O)C(C)C)C(=O)N[C@@H](Cc1ccccc1)C(=O)N[C@@H](CO)C(=O)N[C@@H](C)C(=O)N[C@H](C(=O)N[C@H](C(=O)NCC(=O)N[C@@H](C)C(=O)N[C@H](C(=O)N[C@H](C(=O)N[C@@H](CCC(N)=O)C(=O)N[C@@H](CO)C(=O)O)[C@@H](C)O)C(C)C)[C@@H](C)O)C(C)C` [LKIPGFVRDTLKKVAKEIFSAVTGAVTQS], the MIC in assay [21] was not below 128 µM; in [22], 4 µM (≈ 12.4 µg/mL); in the assay on Escherichia coli MG1655, 1 µM (≈ 3.1 µg/mL); in assay [14], 4 µM (≈ 12.4 µg/mL).
Turning to `CC[C@H](C)[C@H](NC(=O)[C@H](CCCN=C(N)N)NC(=O)[C@@H](NC(=O)[C@@H]1CCCN1C(=O)[C@@H]1CCCN1C(=O)[C@H](CCCN=C(N)N)NC(=O)[C@H](CCCN=C(N)N)NC(=O)[C@H](Cc1ccccc1)NC(=O)[C@@H]1CCCN1C(=O)[C@H](CC(C)C)NC(=O)[C@H](CCCN=C(N)N)NC(=O)[C@H](Cc1ccccc1)NC(=O)[C@H](CCCN=C(N)N)NC(=O)[C@H](CCCN=C(N)N)NC(=O)[C@H](Cc1ccccc1)NC(=O)[C@@H](N)CCCN=C(N)N)[C@@H](C)CC)C(=O)N[C@@H](Cc1cnc[nH]1)C(N)=O` [RFRRFRLPFRRPPIRIH], the MIC was 4 µM and 6.2 µM in assay [23]; 8 µM (≈ 18.6 µg/mL) in [24]; 8 µM and 12.5 µM in assay [25]; 8 µM and 6.2 µM in assay [26]; 16 µM (≈ 37.1 µg/mL) in assay [27]; 0.5 µM (≈ 1.16 µg/mL) in [28].

As a reminder, the MIC is the smallest concentration in the dilution series that meets the test's criterion for growth inhibition. Lower therefore signals greater potency.
